The source of these data is US10173999B2, “Cyclic amine derivative and pharmaceutical use thereof” (Toray Industries, Inc., priority 2015, dated 2019).

One series has as its system Cr1: CD (SD) rats. In words: Evaluation of safety in rat, two-week oral administration test. To be noted: for findings in examination items: in vivo, po. In kind it is in vivo. Here is the method:
As a test compound, the compound of Example 11 or Comparative Example 2 was used. The compound of Example 11 or Comparative Example 2 was administered orally to Cr1: CD (SD) rats (7 weeks old, female and male; from Charles River Laboratories, Inc.), for 2 weeks. Clinical observation, body weight measurement, food intake measurement, ophthalmologic examination (the compound of Example 11, alone), hematological examination, blood chemistry examination, urinalysis, bone marrow examination, pathological anatomical examination, organ weight measurement, histopathological examination and immunotoxicity test were carried out. In addition, toxicokinetics (TK) measurement was carried out on Day 1 and Day 14 after administration. It was confirmed that each test compound was exposed. The administration dose of a test compound was specified as 0, 250, 500, 1000 mg/kg/day and administration volume was specified as 10 mL/kg. As an administration solvent, phosphate-buffered saline was used for the compound of Example 11 and distilled water was used for the compound of Comparative Example 2.

A short description of series [1]: Pharmacokinetics (PK) test in cynomolgus monkeys. In kind it is in vivo, cynomolgus monkey. To be noted: male, plasma, cynomolgus monkey. The protocol:
Cynomolgus monkeys (4 to 6 years old, male) were raised under the conditions of voluntary intake of solid food (Oriental Yeast Co., Ltd) and tap water and fasted from the evening of the day before initiation of administration and subjected to an experiment. Note that blood was sampled at 4 hours after administration (on and after 16:00), and thereafter feeding was restarted.
Dosing solution for intravenous administration was injected through the saphenous vein by use of a syringe needle (attached to a syringe barrel). The oral administration into the stomach was compulsively carried out by inserting a catheter into the nasal cavity.
The blood sampled was centrifuged at 4° C. and 1800×g for 15 minutes to obtain the plasma. The plasma thus obtained was stored at about −80° C. until use in preparation of analysis samples. The plasma obtained from a cynomolgus monkey to which a test compound was administrated, is referred to as a plasma sample; whereas the plasma obtained from a cynomolgus monkey to which a test compound was not administered, is referred to as the blank plasma.
The resulting solution was vortexed and cooled at 4° C. for 10 minutes. A sample for a calibration curve was prepared by adding a standard solution for a calibration curve to the blank plasma and subjecting the resulting mixture to the same treatment. After cooling, each of the samples was spun at 4° C. and 2000 rpm for 10 minutes by a centrifuge (Hitachi Koki Co., Ltd.). The resulting supernatant was used as a sample for LC/MS/MS analysis.
The resulting solution was vortexed and cooled at 4° C. for 10 minutes. A sample for a calibration curve was prepared by adding a standard solution for a calibration curve to the blank plasma and subjecting the resulting mixture to the same treatment. After cooling, each of the samples was spun at 4° C. and 2000 rpm for 10 minutes by a centrifuge (Hitachi Koki Co., Ltd.). The resulting supernatant was diluted 10 fold with 70 vol % acetonitrile containing 0.1 vol % formic acid and subjected as a sample for LC/MS/MS analysis. The LC/MS/MS analysis conditions were as follows:
The test-compound concentrations in the plasma at each sampling time point in the case of intravenous administration or oral administration were calculated and PK analysis was carried out for individual monkeys. PK parameters were calculated by using WinNonlin (Pharsight), in accordance with an analysis independent of a model (intravenous administration: Bolus IV Administration, oral administration: Extravascular Administration; Weight=1/y in both administrations). Furthermore, bioavailability (BA) was calculated based on the following Expression (3) by dividing AUC0-∞iv (time 0 to ∞) at the time of the intravenous administration and AUC0-∞po (time 0 to ∞) at the time of the oral administration by respective dose values to obtained as normalized values. Bioavailability (BA)=(AUC0-∞,po/dose)/(AUC0-∞,iv/dose) (3)

For series [2], the system named is Canine aortic smooth muscle cells. Put plainly: Inducibility of cytoplasmic vacuolation in canine aortic smooth muscle cells. It counts as cell-based. Further details: key: Present: The term “present” in the tables means that cytoplasmic vacuolation was observed; Absent: the term “absent” means that cytoplasmic vacuolation was not observed. Conditions: Concentration: 1.0 mmol/L, Treatment time: 24 hours. The protocol:
(§1) As a test compound, the compound of Example 3, 9, 11, 12 or compounds of Comparative Examples 2 to 6 were used. Canine aortic smooth muscle cells (Canine Aortic Smooth Muscle Cells, supply source: Toyobo Co., Ltd.) or human aortic smooth muscle cells of (T/G HA-VSMG, supply source: ATCC) were treated with a test compound (1.0 or 1.2 mmol/L in concentration) for 24 hours or 2 weeks. The cells were stained with HE, immunohistochemically for LAMP-2 or toluidine blue, and thereafter the presence or absence of cytoplasmic vacuolation was determined by using an optical microscope.

Series [3] relates to human aortic smooth muscle cells (T/G HA-VSMG). Put plainly: Inducibility of cytoplasmic vacuolation in human aortic smooth muscle cells. In kind it is cell-based. To be noted: Concentration: 1.0 mmol/L, Treatment time: 24 hours, sulfate monohydrate. Here is the method: as §1
Series [4] deals with mouse partial sciatic nerve ligation model (neuropathic pain). Put plainly: Mouse partial sciatic nerve ligation model (Seltzer model), von Frey test. To be noted: oral administration, von Frey test at 1, 2, 3 h. In kind it is in vivo. Here is the method: The mouse partial sciatic nerve ligation model was prepared in accordance with the method of Seltzer et al. (Malmberg et al., Pain, vol. 76, p. 215-222, 1998).
Slc: ICR mice (5 weeks old, male; from Japan SLC, Inc.) or Cr1: CD1 (ICR) mice (5 weeks old, male; from CHARLES RIVER LABORATORIES JAPAN, INC.) were anesthetized with sodium pentobarbital (70 mg/kg, intraperitoneal administration). The sciatic nerve at the femoral region of the right hind paw of each mouse was exposed and triply ligated tightly with silk suture of 8-0 (from NATSUME SEISAKUSHO CO., LTD.) under a stereomicroscope so that only half thickness of the nerve was trapped in the ligature. A group of mice thus treated was designated as a partial sciatic nerve ligation group. A group of mice whose sciatic nerve was just exposed and not ligated was designated as a sham surgery group.
Evaluation of neuropathic pain (hereinafter referred to as von Frey test) was performed as follows. Mice were conditioned for at least one hour in an acrylic cage for measurement (from NATSUME SEISAKUSHO CO. LTD. or SHINANO SEISAKUSHO) placed on a wire net. Thereafter, using a filament (from North Coast Medical or neuroscience) which exerted a pressure of 0.16 g, the mice were subjected to mechanical tactile stimulus by applying the filament to the plantar surface of the right hind paw 3 times, each for 3 seconds, with an interval of 3 seconds.
Seven days after the sciatic nerve ligation surgery, the compound of Example 1, 2, 3, 4, 5, 7, 8, 9, 10, 11, 12 or 13 (10 mg/kg for each of the compounds of Example 1, 2, 3, 4, 5, 8, 10 and 13, 0.01 to 1 mg/kg for the compound of Example 7, 0.01 to 10 mg/kg for the compound of Example 9; 0.001 to 0.1 mg/kg for the compound of Example 11; and 0.01 to 1 mg/kg for the compound of Example 12) or pregabalin as a positive control (10 mg/kg; Bosche Scientific) was dissolved in distilled water and orally administered to mice of the partial sciatic nerve ligation group. The groups of the mice in the partial sciatic nerve ligation mouse to which the compound of Example 1, 2, 3, 4, 5, 7, 8, 9, 10, 11, 12 or 13 was administered were designated as a “partial sciatic nerve ligation+the compound of Example 1” group; a “partial sciatic nerve ligation+the compound of Example 2” group; a “partial sciatic nerve ligation+the compound of Example 3” group; a “partial sciatic nerve ligation+the compound of Example 4” group; a “partial sciatic nerve ligation+the compound of Example 5” group; a “partial sciatic nerve ligation+the compound of Example 7” group; a “partial sciatic nerve ligation+the compound of Example 8” group; a “partial sciatic nerve ligation+the compound of Example 9” group; a “partial sciatic nerve ligation+the compound of Example 10” group; a “partial sciatic nerve ligation+the compound of Example 11” group; a “partial sciatic nerve ligation+the compound of Example 12” group; and a “partial sciatic nerve ligation+the compound of Example 13” group, respectively. The partial sciatic nerve ligation mouse group to which pregabalin was administered was designated as a “partial sciatic nerve ligation+pregabalin” group. A group wherein distilled water was orally administered to the mice of the partial sciatic nerve ligation group was designated as a “partial sciatic nerve ligation+distilled water” group. A group wherein distilled water was orally administered to the mice of the sham surgery group was designated as a “sham surgery+distilled water” group.
The von Frey test was carried out before oral administration of a test compound (pre-value), one hour, two hours, and three hours after the oral administration of a test compound.
Slc: ICR mice (5 weeks old, male; Japan SLC, Inc.) were anesthetized with sodium pentobarbital (70 mg/kg, intraperitoneal administration).

Series [5] has the same test system. The description is as above. Conditions: Comparative Example 7: oral, 7 days after ligation, 1-3 h after dosing; 0.01-1 mg/kg (Comp Ex 1), 10 mg/kg (Comp Ex 3-6, pregabalin); vs ligation+distilled water; t-test corrected by Dunnett. It counts as in vivo.

“Also recorded” adds a separate entry of the source. Structures can show the parent of a compound that is named as a salt.

For `CN(C)C1CCN(C(=O)CCc2nccn2C)CC1` [Comparative Example 2, 1-(4-(dimethylamino)piperidin-1-yl)-3-(1-methyl-1H-imidazol-2-yl)propan-1-one sulfate monohydrate], the “findings in examination items” value with Cr1: CD (SD) rats (250 mg/kg/day) is on record as “abnormality was not observed”; with Cr1: CD (SD) rats (500 mg/kg/day) it was “vacuolation was observed in e.g., the media of blood vessels of submandibular gland”. The “no observed adverse effect level” value in the series with Cr1: CD (SD) rats (oral, 2 weeks) came to 250 mg/kg/day. For the same compound, in series [1] (1 mg/kg oral vs 1 mg/kg intravenous, read-out: BA (bioavailability)), the bioavailability (in general, the share of a dose that reaches the circulation, judged against a reference dose that is usually intravenous) is 42.6%. Further, the clearance (commonly the rate of elimination divided by the concentration) in series [1] (intravenous administration 1 mg/kg, single, read-out: CLtot (total body clearance) (converted)) is 8.35 mL/min/kg. Further, the AUC(0-inf) (usually the area under the concentration-time curve extrapolated to infinity) in series [1] (oral administration 1 mg/kg, single) turned out to be 849 ng·h/mL. Moreover, the Cmax in series [1] (oral administration 1 mg/kg, single, read-out: Cmax (maximum plasma concentration)) stood at 146 ng/mL. Also, in series [1] (oral administration 1 mg/kg, single, read-out: t1/2 (elimination half-life in the plasma) (converted)), the half-life is 6.56 h. In addition, the “Inducibility of cytoplasmic vacuolation” value is recorded as “Present” in series [2] and “has the inducibility of cytoplasmic vacuolation; also recorded: Present” in series [3].

Regarding `CCn1ccnc1CCC(=O)N1CCC(N(C)C)CC1` [Comparative Example 3, 1-(4-(dimethylamino)piperidin-1-yl)-3-(1-ethyl-1H-imidazol-2-yl)propan-1-one hydrochloride], in series [4], the “persistence of analgesic action” value was “tended to decrease 2 hours and 3 hours later”; the “time of strongest analgesic action after oral administration” value (“time of strongest analgesic action” for short) is “one”. Besides, the “Inducibility of cytoplasmic vacuolation” value in series [2] is listed as “Present”. Moreover, the “analgesic action in von Frey test (total score)” value (shortened to “analgesic action … (total score)”) in series [5] is recorded as “statistically significant analgesic action”.

For the compound `CCCn1ccnc1CCC(=O)N1CCC(N(C)C)CC1` [Comparative Example 4, 1-(4-(dimethylamino)piperidin-1-yl)-3-(1-propyl-1H-imidazol-2-yl)propan-1-one hydrochloride], in series [4], the “persistence of analgesic action” value was “tended to decrease 2 hours and 3 hours later”; the “time of strongest analgesic action” value was “one”. In addition, the “Inducibility of cytoplasmic vacuolation” value in series [2] was “Present”. The “analgesic action … (total score)” value in series [5] is “statistically significant analgesic action”.

Consider `CCCCn1ccnc1CCC(=O)N1CCC(N(C)C)CC1` [Comparative Example 5, 1-(4-(dimethylamino)piperidin-1-yl)-3-(1-butyl-1H-imidazol-2-yl)propan-1-one hydrochloride], for which, in series [4], the “persistence of analgesic action” value is “tended to decrease 2 hours and 3 hours later”; the “time of strongest analgesic action” value is given as “one”. Further, the “Inducibility of cytoplasmic vacuolation” value in series [2] is “Present”. Further, the “analgesic action … (total score)” value in series [5] is on record as “statistically significant analgesic action”.
